From patent publication US10858339B2, “Aryl cyclopropyl-amino-isoquinolinyl amide compounds” (priority 2017, dated 2020) come the findings set out here.

Structures can show the parent of a compound that is named as a salt.

The assay concerns the target Rho Kinase. As to the kind of experiment: ROCK kinase inhibition assay (Rho Kinase Activity, isoform not given). Particulars: Table 15, mostly given as ranges. It is filed as biochemical. The procedure:
All compounds were initially prepared as 10 mM stocks in anhydrous dimethylsulfoxide (DMSO). A 20 μl aliquot of the 10 mM solutions was transferred to individual wells in column 1 of a 96-well polypropylene microtiter plate (Corning #3363) and diluted with DMSO to give a final compound concentration of 4 mM. Test compounds were then serially diluted 1:5 in DMSO for an 11-point concentration response and further diluted in the assay buffer bringing all compound concentrations to a final range of 100 μM to […] in 2.5% DMSO. The assay was performed in white 96-well, flat-bottom, half-area, non-binding assay plate (Corning #3642) in assay buffer consisting of 20 mM HEPES (pH 7.5), 10 mM MgCl2*6H2O, 100 μM sodium orthovanadate, 0.05% CHAPS and 0.1% bovine serum albumin. A 10 μL aliquot of compound from each well of the intermediate dilution plate and 20 μL of a 2× substrate/enzyme solution containing acceptor substrate (800 nM RSK2 peptide […] (SEQ ID NO: 1)), ROCK2 enzyme (10 nM), or ROCK1 enzyme, and 1,4-Dithiothreitol (DTT, 2 uM) were added to all wells. The reaction was initiated by the addition of 10 μL of 4× stock solution ATP (2 μM). Reactions were thoroughly mixed manually, covered and allowed to incubate at room temperature for 75 min. Protein kinase activity was quantitated using Promega's KINASE-GLO™ luminescent Kinase Assay Kit according to the manufacturer's directions. ATP concentrations remaining in Test wells following the termination of the enzymatic reaction were compared against control wells containing equivalent amounts of DMSO containing no inhibitor (CTRL). […] Percent of Control (POC) values were determined for each concentration of compound tested according to the equation: POC=((Test well value−BKG)/(CTRL−BKG))*100
IC50 values were converted to K; […]
For orientation: Ki means the dissociation constant of the complex between target and ligand, obtained from inhibition or displacement. A lower Ki goes with higher affinity. The compound `CC(C)(C)OC(=O)N1CCC(CNC(=O)c2ccc(C3CC3C(=O)Nc3ccc4cnccc4c3)cc2F)CC1` (centres unmarked) [Example E195.2] had a Ki of 0.4 to 1 nM.

`O=Cc1ccc(C2CC(=O)N(c3ccc4cnccc4c3)C2)cc1` (centres unmarked) [Example E224, 4-(1-(isoquinolin-6-yl)-5-oxopyrrolidin-3-yl)benzaldehyde]: the Ki lay within 2600 to 6750 nM.

In the case of `O=C(NCc1ccccc1)c1ccc([C@@H]2C[C@H]2C(=O)Nc2ccc3cnccc3c2F)cc1` [Example E115.1], the Ki fell in the range of 0.1 to 1 nM.

In the case of `O=C(NCc1ccncc1)c1cccc(C2CC2C(=O)Nc2ccc3cnccc3c2)c1` (centres unmarked) [Example E174], the Ki fell in the range of 0.15 to 0.3 nM.

Regarding `O=C(Nc1ccc2cnccc2c1)C1CC1c1ccccc1` (centres unmarked), the inhibitory constant (Ki) was in the range of 5 to 13 nM.

`O=C(NCc1cccs1)c1ccc(C2CC2C(=O)Nc2ccc3cnccc3c2)cc1` (centres unmarked) [Example E17] yielded an inhibition constant Ki of 2 to 4 nM.

On to `O=C(NCc1ccc(OC(F)(F)F)cc1)c1ccc(C2CC2C(=O)Nc2ccc3cnccc3c2)cc1` (centres unmarked) [Example E15.1], for which the Ki was in the range of 65 to 110 nM.

The compound `O=C1CC(c2ccccc2)CN1c1ccc2cnccc2c1` (centres unmarked) yielded an inhibitory constant (Ki) of 650 to 1350 nM.

With `COc1ccc(CNC(=O)c2ccc(C3CC3C(=O)Nc3ccc4cnccc4c3)cc2)cc1` (centres unmarked) [Example E15], the inhibition constant Ki lay in the range of 1 to 5 nM.

Turning to `O=C(NCc1cccc(F)c1)OCc1ccc([C@@H]2C[C@H]2C(=O)Nc2ccc3cnccc3c2)cc1` (relative stereo) [Example E142, trans-4-(2-(isoquinolin-6-ylcarbamoyl)cyclopropyl)benzyl (3-fluorobenzyl)carbamate], the inhibition constant Ki was in the range of 30 to 800 nM.

In turn, `O=C(Nc1ccc2cnccc2c1)[C@@H]1C[C@H]1c1ccc(S(=O)(=O)Nc2ccccc2)cc1` (relative stereo) [Example E247A, trans-N-(isoquinolin-6-yl)-2-(4-(N-phenylsulfamoyl)phenyl) cyclopropane-1-carboxamide] returned an inhibitory constant (Ki) of 70 to 350 nM.

Turning to `O=C(O)c1ccc(C2CC(=O)N(c3ccc4cnccc4c3)C2)cc1` (centres unmarked) [Example E231, 4-(1-(isoquinolin-6-yl)-5-oxopyrrolidin-3-yl)benzoic acid], the inhibition constant Ki was 34000 to 68000 nM.

`O=C1CC(c2ccc(CNCC3CCNCC3)cc2)CN1c1ccc2cnccc2c1` (centres unmarked) [Example E227.2] came in with an inhibition constant (Ki) of 300 to 600 nM.

`O=C(Nc1ccc2cnccc2c1)[C@@H]1C[C@H]1c1ccc(CNCc2cccnc2)cc1` (relative stereo) [Example E160, trans-N-(isoquinolin-6-yl)-2-(4-(((pyridin-3-ylmethyl)amino)methyl)phenyl)cyclopropane-1-carboxamide] gave a Ki of 250 to 800 nM.

Consider `O=C(NCc1ccc(Cl)cc1)c1ccc(C2CC2C(=O)Nc2ccc3cnccc3c2)cc1` (centres unmarked) [Example E14], for which the inhibition constant (Ki) is 3 to 43 nM.

In turn, `O=C1CC(c2ccc(CNCc3cccnc3)cc2)CN1c1ccc2cnccc2c1` (centres unmarked) [Example E225, 1-(isoquinolin-6-yl)-4-(4-(((pyridin-3-ylmethyl)amino)methyl)phenyl)pyrrolidin-2-one] displayed an inhibitory constant (Ki) of 1350 to 2200 nM.

For `O=C(Nc1ccc2cnccc2c1)[C@@H]1C[C@H]1c1ccc(S(=O)(=O)NCC2CCNCC2)cc1` (relative stereo) [Example E248D, trans-N-(isoquinolin-6-yl)-2-(4-(N-(piperidin-4-ylmethyl)sulfamoyl)phenyl) cyclopropane-1-carboxamide dihydrochloride], the Ki lay in the range of 5 to 9 nM.

In turn, `O=C(NCc1ccncc1)c1ccc(C2CC2C(=O)Nc2ccc3cnccc3c2)cc1` (centres unmarked) [Example E10] came in with a Ki of 1 to 7 nM.

Compound `O=C(Nc1ccc2cnccc2c1)[C@@H]1C[C@H]1c1ccc(S(=O)(=O)N2CCNCC2)cc1` (racemic) [Example E248H, trans)-N-(isoquinolin-6-yl)-2-(4-(piperazin-1-ylsulfonyl)phenyl) cyclopropane-1-carboxamide dihydrochloride] returned a Ki of 30 to 50 nM.

For `O=C(NCc1ccc(Cl)cc1)c1ccc(C2CC2C(=O)Nc2ccc3cnccc3c2)c(F)c1` (centres unmarked) [Example E195], the Ki lay in the range of 70 to 100 nM.

With `CC(C)(C)OC(=O)c1ccc(C2CC(=O)N(c3ccc4cnccc4c3)C2)cc1F` (centres unmarked) [Example E230.1], the Ki worked out at 9300 nM.

`O=C(Nc1ccc2cnccc2c1)[C@@H]1C[C@H]1c1ccc(S(=O)(=O)NC[C@@H]2CCCNC2)cc1` [Example E248F, trans-N-(isoquinolin-6-yl)-2-(4-(N—(((R)-piperidin-3-yl)methyl)sulfamoyl)phenyl)-cyclopropane-1-carboxamide dihydrochloride]: the inhibitory constant (Ki) is 3 to 5 nM.

For `O=C(NCC1CCNCC1)c1ccc(C2CC(=O)N(c3ccc4cnccc4c3)C2)cc1` (centres unmarked) [Example E234.2], the Ki lay within 1000 to 1250 nM.

Regarding `CC(C)(C)OC(=O)N1CCC(CNCc2ccc(C3CC(=O)N(c4ccc5cnccc5c4)C3)cc2)CC1` (centres unmarked) [Example E227.1], the Ki is 1300 to 4000 nM.

`O=C(Nc1ccc(Oc2ccccc2)cc1)c1ccc(C2CC2C(=O)Nc2ccc3cnccc3c2)cc1` (centres unmarked) [Example E39.1] had a Ki of 75 to 110 nM.

As to `O=C(NCc1cccnc1)c1ccc(C2CC(=O)N(c3ccc4cnccc4c3)C2)cc1` (centres unmarked) [Example E232, 4-(1-(isoquinolin-6-yl)-5-oxopyrrolidin-3-yl)-N-(pyridin-3-ylmethyl)benzamide], the Ki lay within 6500 to 16000 nM.

Compound `CC(C)(C)OC(=O)c1ccc(C2CC(=O)N(c3ccc4cnccc4c3)C2)cc1` (centres unmarked) [Example E230, tert-butyl 4-(1-(isoquinolin-6-yl)-5-oxopyrrolidin-3-yl)benzoate] had a Ki of 14000 to 25000 nM.

The compound `O=C(Nc1ccc2cnccc2c1)[C@@H]1C[C@H]1c1ccc(OCc2ccccc2)cc1` (relative stereo) [Example E210, trans-2-(4-(benzyloxy)phenyl)-N-(isoquinolin-6-yl)cyclopropane-1-carboxamide] displayed an inhibition constant (Ki) of 60 to 300 nM.

`Cc1nccc2cc(NC(=O)C3CC3c3ccc(C(=O)NCc4cccnc4)cc3)ccc12` (centres unmarked) [Example E36] registered a Ki of 75 to 200 nM.

`CC(C)(C)OC(=O)N1CCC(CNCc2ccc(C3CC3C(=O)Nc3ccc4cnccc4c3)cc2)CC1` (centres unmarked) [Example E162.1]: the Ki was 200 to 600 nM.

For the compound `O=C1CC(c2ccc(CNCc3ccccn3)cc2)CN1c1ccc2cnccc2c1` (centres unmarked) [Example E226], the Ki lay in the range of 1900 to 9300 nM.

As to `O=C(OCc1ccccc1)c1cccc([C@@H]2C[C@H]2C(=O)Nc2ccc3cnccc3c2)c1` (relative stereo) [Example E170, trans-benzyl 3-(2-(isoquinolin-6-ylcarbamoyl)cyclopropyl)benzoate], the Ki fell in the range of 650 to 1250 nM.

As to `C[C@@H]1OC(c2ccc(C3CC(=O)N(c4ccc5cnccc5c4)C3)cc2)O[C@H]1C` (stereo partly drawn) [Example E223, 4-(4-((4S,5S)-4,5-dimethyl-1,3-dioxolan-2-yl)phenyl)-1-(isoquinolin-6-yl)pyrrolidin-2-one], the Ki fell in the range of 8000 to 15000 nM.

In turn, `O=C(Nc1ccc2cncc(Cl)c2c1)[C@@H]1C[C@H]1c1ccc(S(=O)(=O)NC[C@H]2CCCNC2)cc1` [E250E*] came in with a Ki of 9 to 11 nM.

In turn, `CC(C)(C)OC(=O)N1CCCC(CNC(=O)c2ccc(C3CC3C(=O)Nc3ccc4cnccc4c3)cc2)C1` (centres unmarked) [Example E30.1] displayed a Ki of 10 to 37 nM.

Compound `O=C(NCc1ccc2ccncc2c1)c1ccc(C2CC2C(=O)Nc2ccc3cnccc3c2)cc1F` (centres unmarked) [Example E195.1] displayed a Ki of 4 to 7 nM.

As to `O=C(NCC1CCCNC1)c1ccc(C2CC2C(=O)Nc2ccc3cnccc3c2)cc1` (centres unmarked) [Example E30.2], the Ki fell in the range of 1 to 8 nM.

On to `O=C(Nc1ccc2cnccc2c1)C1CC1c1ccc(CNCC2CCNCC2)cc1` (centres unmarked) [Example E162.2], for which the Ki was 125 to 300 nM.
